Experiments:
morningglories = test: Upland foliar application test by mixed formulations (Test 7); format: in vivo; details: Ipomoea, 720 h, applied alone, 30th day, read-out: Herbicidal effects (%) Morningglory Ea; for pest or weed control at 1000 g/ha: 1 kg/ha; for pest or weed control at 300 g/ha: 0.3 kg/ha
Summary of the method: (§1)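 Foliar spray of two-compound mixed emulsion, diluted with water, at 5 l per are via ULV sprayer onto weeds at 2–3 leaf stage in upland soil pots, greenhouse. Effect observed 30 days after spraying. Measured mixture activity (Ea) compared with Colby expected value (Ec) derived from single-ingredient growth inhibition rates.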

green foxtail [1] = test: as above; format: in vivo; details: Setaria viridis, 720 h, applied alone, 30th day, read-out: Herbicidal effects (%) Green foxtail Ea; for pest or weed control at 1000 g/ha: 1 kg/ha; for pest or weed control at 300 g/ha: 0.3 kg/ha
Summary of the method: as §1

johnsongrass [2] = test: as above; format: in vivo; details: Sorghum halepense, 720 h, applied alone, 30th day, read-out: Herbicidal effects (%) Johnsongrass Ea; for pest or weed control at 300 g/ha: 0.3 kg/ha
Summary of the method: as §1

soybean [3] = test: Upland soil application test (Test 2), crop injury; format: in vivo; details: 30 g ai/a, soil spray before emergence, 30 days later
Summary of the method: (§2)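 Steps: fill pots with fertilized upland field soil containing uniformly mixed weed seed; sow crops and cover with 2-3 cm soil; after one day, spray the diluted wettable powder evenly over the soil at 10 l per are; assess at 30 days against untreated controls by dry weight.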

peanut = test: Upland soil application test (Test 2), crop injury; format: in vivo; details: 30 g ai/a, soil spray before emergence, 30 days later
Summary of the method: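 Soil-surface application of water-diluted wettable powder at 10 l per are, made one day after seeding and ahead of weed emergence. Plants stayed in the greenhouse for 30 days; injury was rated by air-dried weight versus untreated pots.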

cotton [4] = test: Upland soil application test (Test 2), crop injury; format: in vivo; details: 30 g ai/a, soil spray before emergence, 30 days later
Summary of the method: as §2

soybean [5] = test: Upland foliar application test (Test 3), crop injury; format: in vivo; details: 30 g ai/a, foliar spray at 2-3 leaves, 30th day
Summary of the method: (§3)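 Steps: sow in upland soil, greenhouse; grow to 2-3 leaf stage; spray leaves with water-diluted emulsion at 5 l per are using a ULV sprayer; assess effects on day 30.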

cotton [6] = test: as above; format: in vivo; details: 30 g ai/a, foliar spray at 2-3 leaves, 30th day
Summary of the method: as §3

green foxtail [7] = test: Upland soil application test (Test 2); format: in vivo; details: 30 g ai/a, soil spray before emergence, 30 days later
Summary of the method: (§4)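 Weed damage was rated at 30 days by comparing air-dried plant weights against untreated controls. Compound had been applied as a water-diluted wettable powder (10 l per are), sprayed on the soil surface one day after sowing, before emergence, with weed seed incorporated in upland field soil.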

foxtail meadow = test: Upland soil application test (Test 2); format: in vivo; details: 30 g ai/a, soil spray before emergence, 30 days later
Summary of the method: as §4

large crabgrass = test: Upland soil application test (Test 2); format: in vivo; details: 30 g ai/a, soil spray before emergence, 30 days later
Summary of the method: as §4

johnsongrass [8] = test: Upland soil application test (Test 2); format: in vivo; details: 30 g ai/a, soil spray before emergence, 30 days later
Summary of the method: as §4

barnyardgrass = test: Upland soil application test (Test 2); format: in vivo; details: 30 g ai/a, soil spray before emergence, 30 days later
Summary of the method: as §4

redroot pigweed = test: Upland soil application test (Test 2); format: in vivo; details: 30 g ai/a, soil spray before emergence, 30 days later
Summary of the method: as §4

common lambsquarters = test: Upland soil application test (Test 2); format: in vivo; details: 30 g ai/a, soil spray before emergence, 30 days later
Summary of the method: as §4

[9] = tested on: ALS (acetolactate syntase); test: ALS enzyme assay (Test 1); format: biochemical, pea; details: 1,000 ppm (0.5 mg/0.5 ml)
Summary of the method: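 Partially purified ALS from dark-grown pea and barnyardgrass seedlings incubated 1 h at 30° C with pyruvate, TPP, MgCl2 and FAD. Compounds tested at 1,000 ppm (0.5 mg/0.5 ml). Acetoin formed detected colorimetrically at 525 nm via creatine/α-naphthol, relative to blank and acid-stopped controls.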

| Compound | pest or weed control at 1000 g/ha (morningglories) [%] | pest or weed control at 1000 g/ha (green foxtail [1]) [%] | pest or weed control at 1000 g/ha (johnsongrass [2]; 1 kg/ha) [%] | Injury Soybean (soybean [3]) | Injury Peanut (peanut) | Injury Cotton (cotton [4]) | Injury Soybean (soybean [5]) | Injury Cotton (cotton [6]) | Herbicidal effects Green foxtail (green foxtail [7]) | Herbicidal effects Foxtail meadow (foxtail meadow) | Herbicidal effects Large crabgrass (large crabgrass) | Herbicidal effects Johnsongrass (johnsongrass [8]) | Herbicidal effects Barnyardgrass (barnyardgrass) | Herbicidal effects Redroot pigweed (redroot pigweed) | Herbicidal effects Common lambsquarters (common lambsquarters) | Inhibitory activity (%) Pea [9] [%] | pest or weed control at 300 g/ha (morningglories) [%] | pest or weed control at 300 g/ha (green foxtail [1]) [%] | pest or weed control at 300 g/ha (johnsongrass [2]) [%] |
| --- | --- | --- | --- | --- | --- | --- | --- | --- | --- | --- | --- | --- | --- | --- | --- | --- | --- | --- | --- |
| COc1cc(OC)nc(Oc2ccccc2C=NOC2CCCCC2)n1 [Compound No. 3] | 0 | 20 | 40 | 0 (91-100 (No damages)) | 0 (91-100 (No damages)) | 0 (91-100 (No damages)) | 0 (91-100 (No damages)) | 0 (91-100 (No damages)) | 4 (6-10 (Severe damages)) | 3 (11-40 (Medium damages)) | 3 (11-40 (Medium damages)) | 4 (6-10 (Severe damages)) | 3 (11-40 (Medium damages)) | 3 (11-40 (Medium damages)) | 3 (11-40 (Medium damages)) | 0 | – | – | – |
| COc1cc(OC)nc(Oc2ccccc2C=NOCC=C(C)C)n1 [Compound No. 7] | – | – | – | 0 (91-100 (No damages)) | 0 (91-100 (No damages)) | 0 (91-100 (No damages)) | 0 (91-100 (No damages)) | 0 (91-100 (No damages)) | 5 (0-5 (Death)) | 5 (0-5 (Death)) | 5 (0-5 (Death)) | 5 (0-5 (Death)) | 5 (0-5 (Death)) | 4 (6-10 (Severe damages)) | 4 (6-10 (Severe damages)) | 0 | 10 | 50 | 40 |
| C=C(Cl)CON=Cc1ccccc1Oc1nc(OC)cc(OC)n1 [Compound No. 14] | – | – | – | 0 (91-100 (No damages)) | 0 (91-100 (No damages)) | 0 (91-100 (No damages)) | 0 (91-100 (No damages)) | 0 (91-100 (No damages)) | 5 (0-5 (Death)) | 5 (0-5 (Death)) | 5 (0-5 (Death)) | 5 (0-5 (Death)) | 5 (0-5 (Death)) | 4 (6-10 (Severe damages)) | 4 (6-10 (Severe damages)) | 0 | 0 | 30 | 30 |
| COc1cc(OC)nc(Oc2ccccc2C=NOCc2ccccc2)n1 [Compound No. 15] | 0 | 20 | – | 0 (91-100 (No damages)) | 0 (91-100 (No damages)) | 0 (91-100 (No damages)) | 0 (91-100 (No damages)) | 0 (91-100 (No damages)) | 5 (0-5 (Death)) | 5 (0-5 (Death)) | 4 (6-10 (Severe damages)) | 5 (0-5 (Death)) | 5 (0-5 (Death)) | 4 (6-10 (Severe damages)) | 4 (6-10 (Severe damages)) | 0 | – | – | – |
| COc1cc(OC)nc(Oc2ccccc2C=NOCC=CCl)n1 [compound 11] | 0 | 10 | – | 0 (91-100 (No damages)) | 0 (91-100 (No damages)) | 0 (91-100 (No damages)) | 0 (91-100 (No damages)) | 0 (91-100 (No damages)) | 5 (0-5 (Death)) | 5 (0-5 (Death)) | 5 (0-5 (Death)) | 5 (0-5 (Death)) | 5 (0-5 (Death)) | 5 (0-5 (Death)) | 4 (6-10 (Severe damages)) | 0 | – | – | – |
| COc1cc(OC)nc(Oc2ccccc2C=NOCc2cccc(C)c2)n1 [compound 20] | – | – | – | 0 (91-100 (No damages)) | 0 (91-100 (No damages)) | 0 (91-100 (No damages)) | 0 (91-100 (No damages)) | 0 (91-100 (No damages)) | 5 (0-5 (Death)) | 5 (0-5 (Death)) | 5 (0-5 (Death)) | 5 (0-5 (Death)) | 3 (11-40 (Medium damages)) | 5 (0-5 (Death)) | 4 (6-10 (Severe damages)) | 0 | 10 | 10 | – |
| COc1cc(OC)nc(Oc2ccccc2C=NOCC=Cc2ccccc2Br)n1 [compound 40] | – | – | – | 0 (91-100 (No damages)) | 0 (91-100 (No damages)) | 0 (91-100 (No damages)) | 0 (91-100 (No damages)) | 0 (91-100 (No damages)) | 4 (6-10 (Severe damages)) | 5 (0-5 (Death)) | 4 (6-10 (Severe damages)) | 4 (6-10 (Severe damages)) | 5 (0-5 (Death)) | 5 (0-5 (Death)) | 4 (6-10 (Severe damages)) | 0 | 0 | 10 | – |
